Assay results: patent publication US20230248759A1, “ORAL RINSE COMPOSITIONS FOR ALLEVIATING XEROSTOMIA COMPRISING POLYETHYLENE GLYCOL DERIVATIVES” (SunBio Inc., priority 2021, published 2023)

Test system: cultured cells (L-929)
Experiment: Cytotoxicity test, liquid sample (dilution type), ISO 10993
Assay type: cell-based
Details: L-929, liquid test, 0.025 g/ml in media for test material
Experimental: The cytotoxicity test is a test to confirm the safety of the composition according to the present invention, and the presence and degree of a cytotoxic reaction in cultured cells (L-929) was evaluated. A good laboratory practice (GLP) institution was commissioned to perform the test according to each test method presented in ISO 10993.
5-2. Test Method of Liquid Sample: A liquid test solution was prepared in which a dilution solution (2× E-MEM+10% FBS) and the liquid test material were combined/diluted in a 1:1 ratio. The culture medium of cell L-929 was removed from the plate well, replaced with 1 mL of test solution and control medium (diluent), and then the cells were cultured. During culturing, microscopic examinations were carried out every 24, 48, 72±4 hours to evaluate cytotoxicity. Cadmium chloride (100 uM CdCl2) as a positive control and E-MEM+5% FBS as a negative control were also used in the test.
As the evaluation criteria of the cytotoxicity test, a score of 0 to 4 was recorded by evaluating the morphological change of cells and the degree of change in viable cells according to lysis or separation. Scores 3 and 4 were judged to be cytotoxic, and scores of 1 and 2 were judged to be non-cytotoxic.

[Cl][Cd][Cl] [Positive Control, Cadmium chloride]
0/0/0: Cytotoxicity Score 24 hr (24 hr) | Cytotoxicity Score 48 hr (48 hr) | Cytotoxicity Score 72 hr (72 hr)
